Experimental findings from PubChem BioAssay (NCI) are described below.

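Briefly, cells in 96-well plates were exposed to five compound concentrations for 48 h, and endpoints were estimated by linear interpolation. At the GI50, growth is halved. TGI is the concentration that stops growth completely.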

Test systems include 786-0 renal; COLO 205 colon; EKVX NSCLC; HOP-62 NSCLC; HS 578T breast; LOX IMVI melanoma; OVCAR-8 ovarian; PC-3 prostate; SK-MEL-28 melanoma; TK-10 renal.
Holding throughout (assay): DTP human tumour cell line panel, 48 h

By TGI is commonly meant the concentration at which net growth stops. The low end stands for more potent growth arrest, the high end for less potent growth arrest. As for `COc1cc2c(cc1OC)-c1[nH]c3ccc([N+](=O)[O-])cc3c1CC(=O)N2`, the TGI in the test with 786-0 renal was over 100 µM; in the test with COLO 205 colon, 0.811 µM; in the test with EKVX NSCLC, over 84.3 µM; with HOP-62 NSCLC, 9.81 µM; in the test with HS 578T breast, over 100 µM; in the test with LOX IMVI melanoma it was over 100 µM. The TGI in the test with OVCAR-8 ovarian was over 100 µM; in the test with PC-3 prostate, 99.4 µM; in the test on SK-MEL-28 melanoma, over 100 µM; in the test on TK-10 renal, 8.92 µM.
In the case of `COc1c(C)c(C/C=C(\C)CCCCO)c(OC)c2ccccc12`, the TGI with 786-0 renal is over 100 µM; in the test on COLO 205 colon it was over 100 µM; with EKVX NSCLC, over 100 µM; in the test with HS 578T breast, over 100 µM; in the test on LOX IMVI melanoma it was 37.6 µM; in the test with OVCAR-8 ovarian, over 100 µM. The TGI in the test on PC-3 prostate and with TK-10 renal was over 100 µM in each case.
Take `CCOC(=O)[C@@]12NN=N[C@@H]1[C@H]1CO[C@H](c3ccccc3)N1C2=O`: the TGI came out at 30.3 µM in the test on 786-0 renal; 23.5 µM in the test with COLO 205 colon; 28.8 µM with EKVX NSCLC; 30.6 µM in the test on HOP-62 NSCLC; 17.8 µM in the test with HS 578T breast; 4.92 µM with LOX IMVI melanoma. The TGI in the test on OVCAR-8 ovarian was found to be 23.7 µM; in the test on PC-3 prostate, 26 µM; in the test on SK-MEL-28 melanoma it was 19.5 µM; with TK-10 renal it was 30.5 µM.
Take `COC(=O)C1Cc2c([nH]c3ccccc23)-c2[nH]c3ccccc3c2CC(NC(C)=O)C(=O)N2CCCC2C(=O)N1` (centres undefined): the concentration for total growth inhibition (TGI) in the test with 786-0 renal, in the test on COLO 205 colon, with EKVX NSCLC, in the test on HOP-62 NSCLC, with HS 578T breast and in the test with LOX IMVI melanoma was over 100 µM throughout. The TGI in the test with OVCAR-8 ovarian, with PC-3 prostate, in the test with SK-MEL-28 melanoma and with TK-10 renal was over 100 µM each time.
Take `COc1cc2nc3n(c(=O)c2cc1OC)CCCCC3`: the concentration for total growth inhibition (TGI) in the test with 786-0 renal, in the test on COLO 205 colon, in the test on EKVX NSCLC, with HOP-62 NSCLC, in the test with HS 578T breast and with LOX IMVI melanoma was over 100 µM throughout. The TGI with OVCAR-8 ovarian, with PC-3 prostate, in the test with SK-MEL-28 melanoma and with TK-10 renal was over 100 µM in each case.
On to `O=C1c2c(F)c(F)c(F)c(F)c2SC2=Nc3cccc4cccc(c34)N12`, for which the TGI in the test on 786-0 renal came out at 16.9 µM; with COLO 205 colon, 22.8 µM; in the test with EKVX NSCLC it was 26.5 µM; with HOP-62 NSCLC, 27.2 µM; with HS 578T breast it was 7.73 µM; with LOX IMVI melanoma, 7.79 µM. The total growth inhibition concentration (TGI) in the test with OVCAR-8 ovarian is 17.7 µM; in the test on PC-3 prostate it was 17.2 µM; with SK-MEL-28 melanoma, 15.9 µM; in the test on TK-10 renal it was 26.1 µM.
On to `CN(C)C=Nc1c2c(nc3ccccc13)CCCC2`, for which the TGI in the test on 786-0 renal, in the test on COLO 205 colon, in the test with EKVX NSCLC, with HOP-62 NSCLC, with HS 578T breast and with LOX IMVI melanoma was over 100 µM each time. Further, the TGI with OVCAR-8 ovarian, with PC-3 prostate, in the test on SK-MEL-28 melanoma and in the test with TK-10 renal was over 100 µM each time.
Turning to `Cc1csc2c(=O)n(COCc3ccccc3)c(=O)[nH]c12`, the TGI with 786-0 renal, with COLO 205 colon, with EKVX NSCLC, in the test on HOP-62 NSCLC, with HS 578T breast and with LOX IMVI melanoma was over 100 µM each time. Besides, the TGI with OVCAR-8 ovarian, in the test on PC-3 prostate, in the test with SK-MEL-28 melanoma and with TK-10 renal was over 100 µM throughout.
As for `Cn1c(=O)oc2cc(C(=S)N3CCCCC3)ccc21`, the TGI in the test with 786-0 renal, with COLO 205 colon, with EKVX NSCLC, in the test on HOP-62 NSCLC, in the test with HS 578T breast and in the test with LOX IMVI melanoma was over 100 µM each time. In addition, the TGI in the test on OVCAR-8 ovarian, in the test on PC-3 prostate, in the test with SK-MEL-28 melanoma and in the test with TK-10 renal was over 100 µM throughout.
For orientation: GI50 means the concentration at which growth is held to half of that of the control. For `COc1cc(O)c2c(=O)c(OC)c(-c3ccc(OC)c(OC)c3)oc2c1.[Sn]`, the concentration for total growth inhibition (TGI) in the test with 786-0 renal, in the test on COLO 205 colon, in the test on EKVX NSCLC, in the test with HOP-62 NSCLC, in the test on HS 578T breast and in the test on LOX IMVI melanoma was over 100 µM throughout. Also, the TGI with OVCAR-8 ovarian, with PC-3 prostate, in the test on SK-MEL-28 melanoma and in the test on TK-10 renal was over 100 µM each time. Moreover, the GI50 was over 100 µM in the test with EKVX NSCLC; over 100 µM in the test with HOP-62 NSCLC; 29.8 µM with LOX IMVI melanoma; over 100 µM in the test with OVCAR-8 ovarian; 68.5 µM with PC-3 prostate; over 100 µM in the test on SK-MEL-28 melanoma.
For `Clc1ccc(Nc2nnc(CNc3ccc(-c4nnc(Nc5ccc(Cl)cc5)o4)cc3)o2)cc1`, the TGI with 786-0 renal turned out to be 21.8 µM; in the test on COLO 205 colon it was 36.3 µM; in the test on EKVX NSCLC, 44.4 µM; with HOP-62 NSCLC it was 35.1 µM; in the test on HS 578T breast it was 36.7 µM; with LOX IMVI melanoma it was 20.7 µM. Besides, the TGI with OVCAR-8 ovarian was 25.7 µM; in the test on PC-3 prostate, 25.3 µM; in the test with SK-MEL-28 melanoma it was 34.7 µM; with TK-10 renal, 28.9 µM.
Consider `COC(=O)CN(CC1O[C@@H]2OC(C)(C)O[C@@H]2C1NC(C)=O)C(=O)OCc1ccccc1` (some centres undefined), for which the concentration for total growth inhibition (TGI) with 786-0 renal, in the test on COLO 205 colon, in the test on EKVX NSCLC, with HOP-62 NSCLC, in the test on HS 578T breast and with LOX IMVI melanoma was over 100 µM in each case. The TGI in the test with OVCAR-8 ovarian, with PC-3 prostate, with SK-MEL-28 melanoma and in the test on TK-10 renal was over 100 µM each time.
On to `O=C(NCCCc1cn[nH]c(=O)n1)c1cccc2nc3ccccc3nc12`, for which the total growth inhibition concentration (TGI) in the test on 786-0 renal, in the test with COLO 205 colon, in the test on EKVX NSCLC, with HOP-62 NSCLC, in the test with HS 578T breast and in the test on LOX IMVI melanoma was over 100 µM each time. Besides, the TGI in the test on OVCAR-8 ovarian, in the test on PC-3 prostate, in the test on SK-MEL-28 melanoma and in the test on TK-10 renal was over 100 µM throughout.
